Results from patent US20220105054A1, “ABSORPTION ENHANCER OF CINNAMIC ACID DERIVATIVE” (YAMADA BEE COMPANY, INC., priority 2020, published 2022).
Like-named read-outs stand apart in the source and are kept apart here.

Conditions: rat, in vivo; for AUC Mean ± SD / Cmax Mean ± SD: po, 50 mg/kg
Experimental: The following administration liquids were prepared. 10% propylene glycol: a propylene glycol liquid having a concentration of 10% was prepared by diluting propylene glycol with distilled water.
Propolis solution: the required amount of propolis powder (Brazilian green propolis) was weighed and ground in a mortar, and the 10% propylene glycol was added to dissolve the powder to prepare a propolis solution with a concentration of 25 mg/mL as the propolis concentration.
Curcumin suspension: the required amount of curcumin powder (C. longa extract (ethyl acetate extract powder, curcumin content of 95% by mass)) was weighed and ground in a mortar, and then the 10% propylene glycol was added to suspend the powder to prepare a curcumin suspension with a curcumin concentration of 100 mg/mL.
Eighteen 7-week-old male rats (Slc: Wistar/ST, SPF, Japan SLC, Inc.) were acclimated for 7 days. The rats were allowed to freely ingest the solid feed CRF-1 (Oriental Yeast Co., ltd.). The rats were fasted for 8 to 10 hours before the administration of the administration liquids. The rats were divided into three groups of six rats each by a stratified allocation method using EXSUS (Version 10.0.0, EP Croit Co., Ltd.) so that the weight of each group was equal.
In the propolis group, the propolis solution was administered immediately after the administration of 10% propylene glycol. In the propolis+curcumin A group, the propolis solution was administered immediately after the administration of the curcumin suspension. In the propolis+curcumin B group, the propolis solution was administered about 30 minutes after the administration of the curcumin suspension. The administration was carried out in a volume of 2 ml/kg rat body weight for each administration solution. In other words, 50 mg of propolis and 200 mg of curcumin were administered per 1 kg of rat body weight. The administration was carried out under no anesthesia by using a syringe (Terumo Corporation) and an oral feeding needle for rats (Fuchigami Kikai, Ltd).
Blood collection of rats was carried out once 30 minutes before the administration of propolis solution (but before the administration of curcumin suspension in the group with the curcumin suspension administrated) and 0.5, 1, 1.5, 2, 3, 6, 9, and 24 hours after the administration of propolis solution. At each blood sampling time, the tail of rats was disinfected with 70% ethanol under no anesthesia, and then the tip of the tail was cut with a razor to collect about 150 μL of leaking blood by using a hematocrit tube (Fisher Scientific 22-362-566). Nine hours after administration of the propolis solution, feeding was resumed for all fasting animals.
The blood, which had been stored in ice after collection, was centrifuged (1600 ×g, 10 min, 4° C.) using a micro high-speed cooling centrifuge (model MX-100: Tomy Seiko Co., Ltd.) to collect plasma from the blood. The plasma was frozen and stored in a −80° C. freezer.
The concentrations of p-coumaric acid, artepillin C, drupanin, culifolin, capillartemisin A, 3,4-dihydroxy-5-prenyl-(E)-cinnamic acid, and 2,2-dimethylchromene-6-(E)-propenoic acid, kaempferide, 6-methoxy kaempferide, and dihydro kaempferide in the resulting plasma were quantified by LCMS.
For each ingredient, the maximum blood concentration (Cmax) and the area under the curve (AUC) were calculated from the resulting concentrations. AUC is an indicator of the total amount of each ingredient absorbed into the body. […] The ratio in the table indicates the ratio of the mean value of the propolis+curcumin A group to that of the propolis group. Statistics were carried out by t-test.

Row | SMILES | AUC Ratio | Cmax Ratio | AUC Mean ± SD | Cmax Mean ± SD | increase in absorption compared to the propolis group | AUC Ratio (male, Slc: Wistar/ST) | Cmax Ratio (male, Slc: Wistar/ST)
1 | CC(C)=CCc1cc(/C=C/C(=O)O)cc2c1OC(C)(C)C=C2 [Culifolin] | 1.26 | 1.34 | 1088.92 ± 68.35 | 68.98 ± 5.16 |  |  | 
2 | CC(C)=CCc1cc(/C=C/C(=O)O)cc(C/C=C(\C)CO)c1O [Capillartemisin A] | 1.83 | 1.91 | 109.74 ± 12.25 | 10.39 ± 2.01 |  |  | 
3 | CC1(C)C=Cc2cc(/C=C/C(=O)O)ccc2O1 [2,2-dimethylchromene-6-(E)-propenoic acid] | 1.27 | 1.56 | 84.5 ± 4.49 | 18.48 ± 4.02 |  |  | 
4 | COc1ccc(C2Oc3cc(O)cc(O)c3C(=O)C2O)cc1 (stereo not shown) [dihydro kaempferide, reference compound] |  |  |  |  | no significant increase in absorption was observed |  | 
5 | O=C(O)/C=C/c1ccc(O)cc1 [p-Coumaric acid] |  |  | 983.44 ± 372.02 | 343.72 ± 41.6 |  | 1.07 | 1.42
6 | CC(C)=CCc1cc(/C=C/C(=O)O)cc(CC=C(C)C)c1O [Artepillin C] | 1.39 | 1.7 | 811.33 ± 191.31 | 77.7 ± 13.11 |  |  | 
7 | COc1ccc(-c2oc3cc(O)cc(O)c3c(=O)c2O)cc1 [kaempferide, reference compound] |  |  |  |  | no significant increase in absorption was observed |  | 
8 | COc1ccc(-c2oc3cc(O)c(OC)c(O)c3c(=O)c2O)cc1 [6-methoxy kaempferide, reference compound] |  |  |  |  | no significant increase in absorption was observed |  | 
9 | CC(C)=CCc1cc(/C=C/C(=O)O)cc(O)c1O [3,4-dihydroxy-5-prenyl-(E)-cinnamic acid] |  |  | 51.02 ± 28.27 | 7.5 ± 7.5 |  | 1.25 | 1.53
10 | CC(C)=CCc1cc(/C=C/C(=O)O)ccc1O [Drupanin] | 1.41 | 1.98 | 486.19 ± 34.29 | 93.12 ± 19.93 |  |  | 
